These results are taken from patent US20220127258A1, “AROMATIC RING OR HETEROAROMATIC RING COMPOUNDS, PREPARATION METHOD THEREFOR AND MEDICAL USE THEREOF” (The National Institutes of Pharmaceutical R&D Co., Ltd., priority 2019, published 2022).

Structures are written as SMILES. Some results are limits rather than exact numbers.

By EC50 is commonly meant the concentration at which the effect is half-maximal.

The assay addresses T1, FXR (Homo sapiens, UniProt Q96RI1).
T1 sequence (Q96RI1 262-486 limits assumed): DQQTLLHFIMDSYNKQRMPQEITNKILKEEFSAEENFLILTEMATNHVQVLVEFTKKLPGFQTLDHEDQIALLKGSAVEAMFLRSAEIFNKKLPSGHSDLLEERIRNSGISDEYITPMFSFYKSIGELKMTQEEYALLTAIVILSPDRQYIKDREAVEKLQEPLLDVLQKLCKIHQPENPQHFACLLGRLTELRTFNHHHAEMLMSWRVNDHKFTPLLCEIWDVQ
As to the kind of experiment: FXR agonistic activity, luciferase assay. Type of assay: cell-based. Particulars: luc2P-GAL4-HEK293 cells transfected with pBIND-FXR, 24 hours. The protocol: The FXR agonistic activity of the compound of the present invention was evaluated using the luciferase assay.
The experimental process comprises the follows. The luc2P-GAL4-HEK293 stably transfected cell line (the cell line was established by transfecting pGL4.35 plasmid with HEK293 cells which was then subjected to Hygromycin B screening. The cell contained 9×GAL4 UAS and firefly luciferase reporter gene. The ligand-activated LBD-GAL4 DBD fusion protein can enter the nucleus to bind to 9×GAL4 UAS and activate the transcription of the downstream luciferase reporter gene) was transferred to a 96-well plate with […] per well. pBIND-FXR (Which was constructed by inserting FXR-LBD into pFN26A-BIND hRluc-neo Flexi® vector. The plasmid was 7.5 kb in size, Amp resistant, contained FXR-LBD, and can express FXR-LBD and GAL4 DBD fusion proteins) was transfected using X-tremeGENE HP transfection reagent. The ratio of plasmid to transfection reagent was 1 μg: 2 μl. The specific amount was 100 ng of plasmid and 0.2 μl of X-tremeGENE HP transfection reagent per well. The test compounds (the highest concentration of each compound was 30 μM, 3-fold dilution, a total of 10 concentrations) were added to induce the expression of luciferase. After 24 hours, the 96-well plate containing the test cells was taken out from the incubator, and placed at room temperature. Dual-Glo® Luciferase Reagent with the volume equal to the volume of the medium in the well (80 μl/well) was added to each well and mixed well. The plate was incubated at room temperature for 20 minutes to allow the cells to be fully lysed. All the liquid in the plate was transferred to a 96-well microtiter plate, and the firefly luciferin value was measured with a multi-function plate reader (manufacturer: Bio Tek (USA); model: Synergy4). Dual-Glo® a Stop & Glo® Reagent with the volume equal to the volume of the initial medium (80 μl/well) was added to each well and mixed well. The plate was incubated at room temperature for 10 minutes, and the renilla luciferin value was measured. The measurement order of renilla fluorescence should be the same as that of firefly fluorescence. Curve fitting and EC50 calculation were conducted using GraphPad Prism 5 software by nonlinear regression method. The fitting equation is: Y=Bottom+(Top−Bottom)/(1+10^((Log EC50−X)*HillSlope)), wherein EC50 refers to the semi-effective concentration, Top refers to the maximum effect, Bottom refers to the blank effect, and HillSlope refers to the slope.
For `Cc1cc(C(=O)O)ccc1-c1nnc(N2[C@@H]3CC[C@H]2C[C@@H](OCc2c(-c4ccccc4OC(F)(F)F)noc2C2CC2)C3)o1` [Example 27], the EC50 was below 25 nM.
In the case of `O=C(O)c1cccc(-c2nnc(N3[C@@H]4CC[C@H]3C[C@@H](OCc3c(-c5ccccc5OC(F)(F)F)noc3C3CC3)C4)o2)n1` [Example 24, 6-(5-((1R,3r,5S)-3-((5-cyclopropyl-3-(2-(trifluoromethoxy)phenyl)isoxazol-4-yl)methoxy)-8-azabicyclo[3.2.1]octan-8-yl)-1,3,4-oxadiazol-2-yl)pyridine-2-carboxylic acid] it was above 500 nM; in that of `O=C(O)c1ccc(-c2noc(N3[C@@H]4CC[C@H]3C[C@@H](OCc3c(-c5c(Cl)cccc5Cl)noc3C3CC3)C4)n2)cc1` [Example 1, 4-(5-((1R,3r,5S)-3-((5-cyclopropyl-3-(2,6-dichlorophenyl)-isoxazol-4-yl)methoxy)-8-azabicyclo[3.2.1]octan-8-yl)-1,2,4-oxadiazol-3-yl)benzoic acid], below 25 nM; in that of `O=C(O)c1ccc(-c2nnc(N3[C@@H]4CC[C@H]3C[C@@H](OCc3c(-c5ccccc5OC(F)(F)F)noc3C3CC3)C4)o2)cn1` [Example 31, 5-(5-((1R,3r,5S)-3-((5-cyclopropyl-3-(2-(trifluoromethoxy)phenyl)isoxazol-4-yl)methoxy)-8-azabicyclo[3.2.1]octan-8-yl)-1,3,4-oxadiazol-2-yl)pyridine-carboxylic acid], 100 to 500 nM.
As for `COc1cc(-c2nnc(N3[C@@H]4CC[C@H]3C[C@@H](OCc3c(-c5c(Cl)cccc5Cl)noc3C3CC3)C4)o2)ccc1C(=O)O` [Example 13], the figure is below 25 nM; as for `O=C(O)c1ccc(-c2nnc(N3[C@@H]4CC[C@H]3C[C@@H](OCc3c(-c5ccccc5OC(F)(F)F)noc3C3CC3)C4)o2)nc1` [Example 32], above 500 nM; as for `O=C(O)c1ccc(-c2noc(N3[C@@H]4CC[C@H]3C[C@@H](OCc3c(-c5c(Cl)cccc5Cl)noc3C3CC3)C4)n2)cc1Cl` [Example 2, 2-chloro-4-(5-((1R,3r,5S)-3-((5-cyclopropyl-3-(2,6-dichlorophenyl)isoxazol-4-yl)methoxy)-8-azabicyclo[3.2.1]octan-8-yl)-1,2,4-oxadiazol-3-yl)benzoic acid], below 25 nM.
Regarding `O=C(O)c1cccc(-c2nnc(N3[C@@H]4CC[C@H]3C[C@@H](OCc3c(-c5c(Cl)cccc5Cl)noc3C3CC3)C4)o2)n1` [Example 10, 6-(5-((1R,3r,5S)-3-((5-cyclopropyl-3-(2,6-dichlorophenyl)isoxazol-4-yl)methoxy)-8-azabicyclo[3.2.1]octan-8-yl)-1,3,4-oxadiazol-2-yl)pyridine-2-carboxylic acid], the EC50 lay within 100 to 500 nM.
In the case of `O=C(O)c1cc(-c2nnc(N3[C@@H]4CC[C@H]3C[C@@H](OCc3c(-c5ccccc5OC(F)(F)F)noc3C3CC3)C4)o2)cs1` [Example 34] it was above 500 nM; in that of `O=C(O)c1csc(-c2nnc(N3[C@@H]4CC[C@H]3C[C@@H](OCc3c(-c5ccccc5OC(F)(F)F)noc3C3CC3)C4)o2)c1` [Example 33, 5-(5-((1R,3r,5S)-3-((5-cyclopropyl-3-(2-(trifluoromethoxy)phenyl)isoxazol-4-yl)methoxy)-8-azabicyclo[3.2.1]octan-8-yl)-1,3,4-oxadiazol-2-yl)thiophene-3-carboxylic acid], 100 to 500 nM.
In the case of `O=C(O)c1ccc(-c2noc(N3[C@@H]4CC[C@H]3C[C@@H](OCc3c(-c5c(Cl)cccc5Cl)noc3C3CC3)C4)n2)s1` [Example 4] it was below 25 nM; in that of `O=C(O)c1cccc(-c2nnc(N3[C@@H]4CC[C@H]3C[C@@H](OCc3c(-c5c(Cl)cccc5Cl)noc3C3CC3)C4)o2)c1` [Example 15], below 25 nM.
As for `O=C(O)c1ccc(-c2nnc(N3[C@@H]4CC[C@H]3C[C@@H](OCc3c(-c5c(Cl)cccc5Cl)noc3C3CC3)C4)o2)cn1` [Example 18, 5-(5-((1R,3r,5S)-3-((5-cyclopropyl-3-(2,6-dichlorophenyl)isoxazol-4-yl)methoxy)-8-azabicyclo[3.2.1]octan-8-yl)-1,3,4-oxadiazol-2-yl)pyridine-carboxylic acid], the figure is 100 to 500 nM; as for `O=C(O)c1cccc(-c2noc(N3[C@@H]4CC[C@H]3C[C@@H](OCc3c(-c5c(Cl)cccc5Cl)noc3C3CC3)C4)n2)c1` [Example 6], below 25 nM; as for `Cc1cc(-c2noc(N3[C@@H]4CC[C@H]3C[C@@H](OCc3c(-c5c(Cl)cccc5Cl)noc3C3CC3)C4)n2)ccc1C(=O)O` [Example 7], below 25 nM.
On to `Cc1cc(C(=O)O)ccc1-c1noc(N2[C@@H]3CC[C@H]2C[C@@H](OCc2c(-c4c(Cl)cccc4Cl)noc2C2CC2)C3)n1` [Example 5], for which the concentration giving a half-maximal response (EC50) is below 25 nM.
Turning to `Cc1cc(-c2nnc(N3[C@@H]4CC[C@H]3C[C@@H](OCc3c(-c5c(Cl)cccc5Cl)noc3C3CC3)C4)o2)ccc1C(=O)O` [Example 17], the EC50 was below 25 nM.
As for `O=C(O)c1cc(-c2nnc(N3[C@@H]4CC[C@H]3C[C@@H](OCc3c(-c5c(Cl)cccc5Cl)noc3C3CC3)C4)o2)cs1` [Example 21], the figure is 100 to 500 nM; as for `Cc1cc(-c2nnc(N3[C@@H]4CC[C@H]3C[C@@H](OCc3c(-c5ccccc5OC(F)(F)F)noc3C3CC3)C4)o2)ccc1C(=O)O` [Example 30], below 25 nM.
As for `O=C(O)c1ccc(-c2nnc(N3[C@@H]4CC[C@H]3C[C@@H](OCc3c(-c5ccccc5OC(F)(F)F)noc3C3CC3)C4)o2)s1` [Example 25], the figure is 100 to 500 nM; as for `O=C(O)c1ccc(-c2nnc(N3[C@@H]4CC[C@H]3C[C@@H](OCc3c(-c5ccccc5OC(F)(F)F)noc3C3CC3)C4)o2)cc1Cl` [Example 23, 2-chloro-4-(5-((1R,3r,5S)-3-((5-cyclopropyl-3-(2-(trifluoromethoxy)phenyl)isoxazol-4-yl)methoxy)-8-azabicyclo[3.2.1]octan-8-yl)-1,3,4-oxadiazol-2-yl)benzoic acid], 100 to 500 nM.
With `O=C(O)c1cccc(-c2noc(N3[C@@H]4CC[C@H]3C[C@@H](OCc3c(-c5c(Cl)cccc5Cl)noc3C3CC3)C4)n2)n1` [Example 3], the half-maximal effective concentration (EC50) is below 25 nM.
Consider `O=C(O)c1ccc(-c2nnc(N3[C@@H]4CC[C@H]3C[C@@H](OCc3c(-c5c(Cl)cccc5Cl)noc3C3CC3)C4)o2)nc1` [Example 19, 6-(5-((1R,3r,5S)-3-((5-cyclopropyl-3-(2,6-dichlorophenyl)isoxazol-4-yl)methoxy)-8-azabicyclo[3.2.1]octan-8-yl)-1,3,4-oxadiazol-2-yl)nicotinic acid], for which the EC50 is above 500 nM.
In the case of `O=C(O)c1ccc(-c2nnc(N3[C@@H]4CC[C@H]3C[C@@H](OCc3c(-c5c(Cl)cccc5Cl)noc3C3CC3)C4)o2)c(F)c1` [Example 16, 4-(5-((1R,3r,5S)-(3-((5-cyclopropyl-3-(2,6-dichlorophenyl)isoxazol-4-yl))methoxy)-8-azabicyclo[3.2.1]octan-8-yl)-1,3,4-oxadiazol-2-yl)-3-fluorobenzoic acid] it was 50 to 100 nM.
